Data on five compounds can be found in US12458643B2, “Antidepressant/anxiolytic drug in which PAC1 receptor antagonist is used” (KAGOSHIMA UNIVERSITY, priority 2020, dated 2025).

Data set [1] concerns normal mice. The data set is described as follows: Elevated plus maze test in normal mice. In kind it is in vivo, mouse. As to conditions: normal male C57BL/6J mice, 30 mg/kg i.p., 60 min after administration, 5 min test. The protocol: The effects of PA-8 and PA-81004 on normal mice were evaluated by an elevated plus maze test (test that exploits the properties of mice to avoid heights and prefer to stay near walls; in this test, anxiety-like behavior is evaluated by placing the mice at the center of a maze disposed at a height of 50 cm in which a 26 cm long and 8 cm wide open arm without walls and a closed-arm with walls are disposed in a cross shape, and measuring a time spent in the open arm and the number of entries thereto).
Male C57BL/6J mice (8 to 12 weeks old) were acclimatized to a laboratory (illuminance: 50 lx) for 60 minutes. Then, a vehicle (10% DMSO solution; dissolved in saline; n=13), PA-8 (30 mg/kg; n=12) or PA-81004 (30 mg/kg; n=12) was intraperitoneally administered thereto (0.1 mL/10 g). After a lapse of 60 minutes after administration, the test was conducted for 5 minutes. The results are shown in FIG. 3 (A: total distance traveled, B: the number of open arm (course without walls) entries, C: time spent in the open arm).
The effects of PA-9 and PA-915 on normal mice were evaluated by the elevated plus maze test.
Male C57BL/6J mice (8 to 12 weeks old) were acclimatized to a laboratory (illuminance: 50 lx) for 60 minutes. Then, a vehicle (10% DMSO solution; dissolved in saline; n=8), PA-9 (30 mg/kg; n=8) or PA-915 (30 mg/kg; n=7) was intraperitoneally administered thereto (0.1 mL/10 g). After a lapse of 60 minutes after administration, the test was conducted for 5 minutes. The results are shown in FIG. 7 (A: total distance traveled, B: the number of open arm entries, C: time spent in the open arm).

A further data set concerns the target T1, PAC1 receptor (Homo sapiens, UniProt P41586).
T1 sequence (P41586 21-468): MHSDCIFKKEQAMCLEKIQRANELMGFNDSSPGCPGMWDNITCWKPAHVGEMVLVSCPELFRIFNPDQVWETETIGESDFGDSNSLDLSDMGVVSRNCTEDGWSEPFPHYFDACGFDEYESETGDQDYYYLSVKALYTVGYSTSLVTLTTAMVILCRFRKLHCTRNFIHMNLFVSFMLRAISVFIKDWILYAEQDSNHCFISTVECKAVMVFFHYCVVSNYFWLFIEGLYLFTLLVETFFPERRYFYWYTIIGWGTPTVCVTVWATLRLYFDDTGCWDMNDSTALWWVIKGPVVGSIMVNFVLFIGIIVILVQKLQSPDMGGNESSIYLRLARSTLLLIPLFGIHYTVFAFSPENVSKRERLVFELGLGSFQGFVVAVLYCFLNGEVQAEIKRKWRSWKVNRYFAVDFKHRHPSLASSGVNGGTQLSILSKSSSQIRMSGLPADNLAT
As to conditions: disclosed in Patent Literature 2 (WO 2019/065794); cited from earlier work.

For data set [2] the following is noted: disclosed in Patent Literature 2 (WO 2019/065794); cited from earlier work.
The test system of data set [3] is chronically corticosterone-administered model mice. The data set is described as follows: Repeated corticosterone administration, forced swim test. In kind it is in vivo, mouse. As to conditions: male mice, corticosterone 20 mg/kg s.c. 21 days; single i.p. PA-915 30 mg/kg, ketamine 20 mg/kg, fluoxetine 20 mg/kg; 24 hours later. The protocol:
Chronically corticosterone-administered model mice are model mice that mimic high plasma corticosterone levels associated with the hyperactivation of the hypothalamic-pituitary-adrenal system under pathological stress, and are generally used as depression model mice.
A vehicle (0.5% carboxymethylcellulose solution) or corticosterone (20 mg/kg) was subcutaneously administered (0.1 mL/10 g) to male C57BL/6J mice (6 weeks old) for 21 days. A vehicle (10% DMSO solution; dissolved in saline; n=11), PA-915 (30 mg/kg; n=13), ketamine (20 mg/kg; n=13) or fluoxetine (20 mg/kg; n=15) was intraperitoneally administered thereto (0.1 mL/10 g) 3 hours after administration on the 21st day. The mice were forced to swim for 6 minutes 24 hours later, and an immobility time was measured. Mice given the vehicle by repeated administration without repeated corticosterone administration were used as a control (n=11). The data was indicated by mean±standard error. **P<0.01 (One-way ANOVA followed by Tukey-Kramer test).
A vehicle (0.5% carboxymethylcellulose solution) or corticosterone (20 mg/kg) was subcutaneously administered (0.1 mL/10 g) to female C57BL/6J mice (9 weeks old) for 21 days. […] The mice were forced to swim for 6 minutes 24 hours later, and an immobility time was measured. […]

Data set [4] deals with normal mice. The data set is described as follows: Prepulse inhibition (PPI) test in normal mice. In kind it is in vivo, mouse. The note with it: i.p. PA-915 30 mg/kg, ketamine 20 mg/kg. The protocol:
A vehicle (V: 10% DMSO solution; dissolved in saline; n=13), PA-915 (PA: 30 mg/kg; n=10) or ketamine (K: 20 mg/kg; n=15) was intraperitoneally administered (0.1 mL/10 g) to male C57BL/6J mice (8 to 12 weeks old), which were then acclimatized to 65 dB background noise for 5 minutes in the apparatus. The mice were randomly stimulated 20 times with 50-msec 120 dB startle sound or with 20-msec 73 dB, 77 dB, and 81 dB prepulse sounds and 50-msec 120 dB startle sound 50 msec after each prepulse sound for 30 minutes from the completion of acclimatization. In this respect, the ratio of PPI was calculated according to [(Average startle amplitude without prepulse)−(Average startle amplitude of trial with prepulse)]/(Average startle amplitude without prepulse)×100. The data was indicated by mean±standard error. **P<0.01; *P<0.05 (One-way ANOVA followed by Tukey-Kramer test).

As for `C=CCOc1ccc(C2CC(=O)Nc3nc(N)[nH]c(=O)c32)cc1OC` (stereo not shown) [PA-8], the “pharmacological action in elevated plus maze test (total distance, open arm entries, time in open arm)” value (from here on “pharmacological action”) with normal mice [1] was “no pharmacological action”. In addition, the “PAC1 receptor antagonistic action” value on PAC1 receptor is “PAC1 receptor antagonistic action”. Also, the analgesic action entry in data set [2] is listed as “analgesic action”.
Consider `O=C(NCCc1c[nH]cn1)C1CC(=O)N(c2n[nH]c3ccccc23)C1` (stereo not shown) [PA-9], for which the “pharmacological action” value in the data set on normal mice [1] is recorded as “no pharmacological action”. Moreover, the “PAC1 receptor antagonistic action” value at PAC1 receptor was “PAC1 receptor antagonistic action”. The analgesic action result in data set [2] was “analgesic action”.
Take `Nc1nc2c(c(=O)[nH]1)C(c1cccc(OC(F)(F)F)c1)CC(=O)N2` (stereo not shown) [PA-81004, 2-Amino-5-(3-trifluoromethoxyphenyl)-5,8-dihydro-3H,6H-pyrido[2,3-d]pyrimidine-4,7-dione]: the “pharmacological action” value with normal mice [1] is “no pharmacological action”.
Turning to `CNCCC(Oc1ccc(C(F)(F)F)cc1)c1ccccc1` (stereo not shown) [fluoxetine], the “effect on depressive-like behavior (forced swim test, immobility time)” value in data set [3] is given as “exhibited no improving effect”.
In the case of `CNC1(c2ccccc2Cl)CCCCC1=O` (stereo not shown) [ketamine], in the data set on normal mice [4], the “influence on prepulse inhibition (PPI ratio)” value is on record as “caused prepulse inhibition deficits”. Moreover, the “effect on depressive-like behavior (forced swim test, immobility time)” value in data set [3] is “improved depressive-like behavior”.
